Key:
Mus musculus [1] = assay: In vivo inhibition of AA induced ear oedema in mice following topical administration.; format: functional
Mus musculus [2] = assay: In vivo inhibition of ear oedema in mice following p.o. administration.; format: functional; settings: po
Cyclooxygenase = molecular target: T1, Cyclooxygenase (Rattus norvegicus, UniProt P35355+Q63921); assay: In vitro for prostaglandin G/H synthase inhibitory activity against rat basophil leukemia type 1 cell homogenates, by measuring the radioactivity of [14C]-PGD2
T1 sequence (P35355 whole entry): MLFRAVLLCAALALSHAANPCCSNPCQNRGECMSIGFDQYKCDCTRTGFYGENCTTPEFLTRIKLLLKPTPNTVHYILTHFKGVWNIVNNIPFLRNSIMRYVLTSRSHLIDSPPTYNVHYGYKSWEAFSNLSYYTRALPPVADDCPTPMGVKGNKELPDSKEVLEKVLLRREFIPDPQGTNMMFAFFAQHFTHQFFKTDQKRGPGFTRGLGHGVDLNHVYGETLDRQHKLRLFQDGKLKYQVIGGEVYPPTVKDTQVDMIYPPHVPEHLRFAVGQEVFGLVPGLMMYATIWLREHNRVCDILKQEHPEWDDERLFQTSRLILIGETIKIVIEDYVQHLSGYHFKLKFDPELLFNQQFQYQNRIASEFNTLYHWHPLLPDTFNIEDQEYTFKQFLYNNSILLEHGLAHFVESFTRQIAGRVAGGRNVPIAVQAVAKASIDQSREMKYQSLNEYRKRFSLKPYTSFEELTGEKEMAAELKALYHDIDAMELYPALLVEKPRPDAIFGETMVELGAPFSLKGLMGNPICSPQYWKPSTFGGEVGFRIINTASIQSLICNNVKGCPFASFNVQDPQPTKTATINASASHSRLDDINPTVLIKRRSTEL
T1 sequence (Q63921 whole entry): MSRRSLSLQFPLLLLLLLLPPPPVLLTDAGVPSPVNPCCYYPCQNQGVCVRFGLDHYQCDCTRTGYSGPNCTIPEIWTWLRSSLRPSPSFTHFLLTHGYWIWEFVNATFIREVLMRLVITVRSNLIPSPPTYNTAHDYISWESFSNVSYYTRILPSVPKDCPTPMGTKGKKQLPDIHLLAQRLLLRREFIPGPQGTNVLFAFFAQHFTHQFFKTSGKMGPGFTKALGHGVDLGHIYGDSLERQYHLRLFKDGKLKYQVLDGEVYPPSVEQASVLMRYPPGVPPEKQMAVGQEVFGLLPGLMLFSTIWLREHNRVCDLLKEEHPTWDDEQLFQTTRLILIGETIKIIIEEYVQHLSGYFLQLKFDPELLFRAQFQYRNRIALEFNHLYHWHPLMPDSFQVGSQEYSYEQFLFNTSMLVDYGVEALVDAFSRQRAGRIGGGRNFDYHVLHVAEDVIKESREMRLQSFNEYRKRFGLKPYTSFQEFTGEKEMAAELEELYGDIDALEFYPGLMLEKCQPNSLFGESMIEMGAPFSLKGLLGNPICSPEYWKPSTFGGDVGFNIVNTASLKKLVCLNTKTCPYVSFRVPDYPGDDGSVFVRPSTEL

[3] = molecular target: T2, Polyunsaturated fatty acid 5-lipoxygenase (Rattus norvegicus, UniProt P12527); assay: Iin vitro inhibition of 5-lipoxygenase activity in rat basophil leukemia type 1(RBL1) cell homogenates, (reduction of [14C]-5-HETE formation)
T2 sequence (P12527 whole entry): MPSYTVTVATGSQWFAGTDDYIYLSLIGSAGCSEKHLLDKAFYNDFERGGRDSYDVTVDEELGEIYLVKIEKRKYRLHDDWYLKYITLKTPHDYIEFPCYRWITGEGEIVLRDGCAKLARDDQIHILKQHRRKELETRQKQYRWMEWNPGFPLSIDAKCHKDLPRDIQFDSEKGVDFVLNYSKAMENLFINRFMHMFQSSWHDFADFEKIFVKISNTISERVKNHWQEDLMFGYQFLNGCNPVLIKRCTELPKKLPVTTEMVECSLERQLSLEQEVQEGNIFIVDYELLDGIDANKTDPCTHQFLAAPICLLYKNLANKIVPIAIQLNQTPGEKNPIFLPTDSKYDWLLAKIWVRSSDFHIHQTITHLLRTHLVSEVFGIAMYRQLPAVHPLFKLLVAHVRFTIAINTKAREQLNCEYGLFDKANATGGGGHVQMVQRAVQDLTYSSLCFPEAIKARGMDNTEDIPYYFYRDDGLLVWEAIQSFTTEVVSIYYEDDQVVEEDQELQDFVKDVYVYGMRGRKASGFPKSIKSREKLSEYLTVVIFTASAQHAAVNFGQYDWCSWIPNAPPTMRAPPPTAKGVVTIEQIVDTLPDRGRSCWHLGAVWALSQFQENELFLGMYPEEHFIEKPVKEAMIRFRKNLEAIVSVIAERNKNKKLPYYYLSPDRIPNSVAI

[4] = molecular target: T2, Polyunsaturated fatty acid 5-lipoxygenase; assay: In vitro inhibitory activity against 5-Lipoxygenase in rat by Peritoneal 5-lipoxygenase assay
[5] = molecular target: T2, Polyunsaturated fatty acid 5-lipoxygenase; assay: In vitro inhibition of 5-lipoxygenase in rat (peritoneal assay)

Row | IC50 (Cyclooxygenase) [µM] | SMILES | ED50 (Mus musculus [1]) [mg ear-1] | ED50 (Mus musculus [2]) [mg/kg] | other results
1 |  | CCOC(=O)C(=O)C=C/C(Sc1ccccc1)=C(\O)c1ccccc1 | >2 |  | 
2 | > 50 | CC(Cc1ccc(O)c(O)c1)C(C)Cc1ccc(O)c(O)c1 (stereo not given) [NORDIHYDROGUAIARETIC ACID] | 0.1 | > 100 | 
3 | > 50 | CCOC(=O)C(=CC=C(SC)C(=O)c1ccccc1)N(C)C |  |  | IC50 [3]: > 50 µM; IC50 [4]: > 50 µM
4 |  | CC1=NN(CCOc2ccc3ccccc3c2)C(=O)C1 [NAFAZATROM] | 2 | > 100 | 
5 |  | CCOC(=O)C(=CC=C(C(=O)OCC)N(C)C)Sc1ccccc1 | >2 |  | 
6 | 6 | NC1=NN(c2cccc(C(F)(F)F)c2)CC1 [BW-755C] | 0.08 | 75 | 
7 |  | CCOC(=O)C(=O)C=C/C(=C(\O)OCC)c1ccccc1 | >2 |  | 
8 |  | CC(C)(C)c1cc(/C=C2\CCOC2=O)cc(C(C)(C)C)c1O | 0.3 | 100 | 
9 |  | CCOC(=O)C(=O)C=C/C(O)=C(\O)OCC | >2 |  | 
10 |  | CCOC(=O)C(=O)C=C/C(SCc1ccccc1)=C(\O)OCC | >2 |  | 
11 | 12 | CCO/C(O)=C(/C=CC(=O)C(=O)c1ccccc1)Sc1ccccc1 | >2 | > 50 | IC50 [3]: 2 µM; IC50 [5]: 3 µM
12 |  | CCOC(=O)C(=O)C=C/C(C(=O)c1ccccc1)=C(\O)OCC | >2 |  | 
13 |  | O=C(O)C(O)=CC=Cc1ccccc1 | >5 |  | 
14 |  | CCO/C(O)=C(/C=CC=O)Sc1ccccc1 | 2 |  | 
15 |  | CCSC(=CC=C(O)C(=O)O)C(=O)O | >0.5 |  | 

Row | SMILES | IC50 (Cyclooxygenase) [µM] | ED50 (Mus musculus [1]) [mg ear-1] | ED50 (Mus musculus [2]) [mg/kg] | other results
16 | O=c1c(O)c(-c2ccc(O)c(O)c2)oc2cc(O)cc(O)c12 [QUERCETIN] | > 50 | 1 | > 100 | 

Reference: ChEMBL document CHEMBL1125118, “Penta- and hexadienoic acid derivatives: a novel series of 5-lipoxygenase inhibitors” (J Med Chem, 1990)
